pIC50: −log10 of the molar value.

T1 sequence (P02607 2-151): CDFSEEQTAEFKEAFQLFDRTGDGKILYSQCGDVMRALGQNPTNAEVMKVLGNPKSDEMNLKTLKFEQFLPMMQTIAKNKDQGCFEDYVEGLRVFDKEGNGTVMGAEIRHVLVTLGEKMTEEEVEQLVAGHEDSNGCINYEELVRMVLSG
T1 sequence (P10587 84-789): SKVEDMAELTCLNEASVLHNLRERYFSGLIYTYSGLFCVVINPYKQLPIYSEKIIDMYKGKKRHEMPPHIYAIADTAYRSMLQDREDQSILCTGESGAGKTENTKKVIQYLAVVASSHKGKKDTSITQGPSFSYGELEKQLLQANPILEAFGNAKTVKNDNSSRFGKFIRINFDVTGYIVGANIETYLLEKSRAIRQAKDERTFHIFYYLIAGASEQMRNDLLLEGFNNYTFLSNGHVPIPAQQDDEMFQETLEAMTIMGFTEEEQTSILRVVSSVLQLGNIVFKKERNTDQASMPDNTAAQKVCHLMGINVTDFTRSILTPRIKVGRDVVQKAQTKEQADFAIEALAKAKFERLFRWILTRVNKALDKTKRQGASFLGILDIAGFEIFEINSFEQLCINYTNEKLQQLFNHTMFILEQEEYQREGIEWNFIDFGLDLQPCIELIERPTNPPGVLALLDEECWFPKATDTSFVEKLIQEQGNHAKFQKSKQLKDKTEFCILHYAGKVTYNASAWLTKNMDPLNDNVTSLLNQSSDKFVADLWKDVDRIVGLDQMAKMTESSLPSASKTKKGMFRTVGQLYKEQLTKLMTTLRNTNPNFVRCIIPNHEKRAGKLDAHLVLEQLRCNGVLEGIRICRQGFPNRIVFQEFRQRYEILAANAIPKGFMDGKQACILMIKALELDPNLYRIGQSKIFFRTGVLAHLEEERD

This assay has as its target T1, chicken gizzard smooth muscle myosin subfragment-1 chemically crosslinked to cardiac or skeletal actin (Gallus gallus, UniProt P10587).
T1 construct: chicken gizzard smooth muscle myosin subfragment-1; from tissue; host or cells: chicken gizzard
The assay can be described thus: Smooth muscle myosin ATPase dose response assay (pyruvate kinase/horseradish peroxidase/pyruvate oxidase-coupled, amplex red fluorescence). The assay is classed as biochemical. The settings on record: read-out: IC50 Arithmetic Mean. The method, boiled down: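 Readout is amplex red signal from coupled ATPase of actin-crosslinked gizzard myosin S1 (0.15 mM ATP, 12 mM K-PIPES, pH 7.00). IC50 is the half-maximal activity point of a four-parameter Hill fit.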
Turning to `CC(C)(C)OC(=O)NCCCN1C(=O)CC[C@@H]1CNC(=O)c1cc(C#N)c(-c2cn[nH]c2)nc1NCCc1cccc(F)c1` [N-[((2R)-1-{3-[(tert-butoxy)carbonylamino]propyl}-5-oxopyrrolidin-2-yl)methyl](5-cyano-2-{[2-(3-fluorophenyl)ethyl]amino}-6-pyrazol-4-yl(3-pyridyl))carboxamide], the pIC50 (commonly −log10 of the IC50, conventionally taken in molar units) is 5.46.

For `Cn1cc(-c2nc(NCCc3cccc(F)c3)c(C(=O)NC[C@H]3CCC(=O)N3CCCNC(=O)OC(C)(C)C)cc2F)cn1` [N-[((2R)-1-{3-[(tert-butoxy)carbonylamino]propyl}-5-oxopyrrolidin-2-yl)methyl](5-fluoro-2-{[2-(3-fluorophenyl)ethyl]amino}-6-(1-methylpyrazol-4-yl)(3-pyridyl))carboxamide], the pIC50 was 6.49.

Take `CC(C)(C)OC(=O)NCCCN1C(=O)CC[C@@H]1CNC(=O)c1cc(F)c(-c2cn[nH]c2)nc1NCCc1cccc(F)c1` [N-[((2R)-1-{3-[(tert-butoxy)carbonylamino]propyl}-5-oxopyrrolidin-2-yl)methyl](5-fluoro-2-{[2-(3-fluorophenyl)ethyl]amino}-6-pyrazol-4-yl(3-pyridyl))carboxamide]: the pIC50 is 6.45.

For the molecule `CC(C)(C)OC(=O)NCCCN1C(=O)CC[C@@H]1CNC(=O)c1ccc(-c2ccccc2C#N)nc1NCCc1cccc(F)c1` [N-[((2R)-1-{3-[(tert-butoxy)carbonylamino]propyl}-5-oxopyrrolidin-2-yl)methyl](6-(2-cyanophenyl)-2-{[2-(3-fluorophenyl)ethyl]amino}(3-pyridyl))carboxamide], the pIC50 is 6.29.

In the case of `CC(C)(C)OC(=O)NCCCN1C(=O)CC[C@@H]1CNC(=O)c1cc(F)c(-c2ccccc2C#N)nc1NCCc1cccc(F)c1` [N-[((2R)-1-{3-[(tert-butoxy)carbonylamino]propyl}-5-oxopyrrolidin-2-yl)methyl](6-(2-cyanophenyl)-5-fluoro-2-{[2-(3-fluorophenyl)ethyl]amino}(3-pyridyl))carboxamide], the pIC50 was 6.07.

For `CC(C)(C)OC(=O)NCCCN1C(=O)CCC[C@@H]1CNC(=O)c1ccc(-c2ccccc2C#N)nc1NCCc1cccc(F)c1` [N-[((2R)-1-{3-[(tert-butoxy)carbonylamino]propyl}-6-oxo(2-piperidyl))methyl](6-(2-cyanophenyl)-2-{[2-(3-fluorophenyl)ethyl]amino}(3-pyridyl))carboxamide], the pIC50 was 6.41.

As to `CC(C)(C)OC(=O)NCCCN1CCC[C@@H]1CNC(=O)c1ccc(-c2ccccc2C#N)nc1NCCc1cccc(F)c1` [N-[((2R)-1-{3-[(tert-butoxy)carbonylamino]propyl}pyrrolidin-2-yl)methyl](6-(2-cyanophenyl)-2-{[2-(3-fluorophenyl)ethyl]amino}(3-pyridyl))carboxamide], the pIC50 is 5.87.

For the molecule `Cn1cc(-c2nc(NCCc3cccc(F)c3)c(C(=O)NC[C@H]3CCN3C(=O)CCCNC(=O)OC(C)(C)C)cc2F)cn1` [N-[((2R)-1-{4-[(tert-butoxy)carbonylamino]butanoyl}azetidin-2-yl)methyl](5-fluoro-2-{[2-(3-fluorophenyl)ethyl]amino}-6-(1-methylpyrazol-4-yl)(3-pyridyl))carboxamide], the pIC50 was 6.91.

Consider `Cc1cc(C(=O)NC[C@H]2CCCN2C(=O)CCCNC(=O)OC(C)(C)C)c(NCCc2cccc(F)c2)nc1-c1cnn(C)c1` [N-[((2R)-1-{4-[(tert-butoxy)carbonylamino]butanoyl}pyrrolidin-2-yl)methyl](2-{[2-(3-fluorophenyl)ethyl]amino}-5-methyl-6-(1-methylpyrazol-4-yl)(3-pyridyl))carboxamide], for which the pIC50 was 5.64.

`Cn1cc(-c2ccc(C(=O)NC[C@H]3CCCN3C(=O)CCCNC(=O)OC(C)(C)C)c(NCCc3cccc(F)c3)n2)cn1` [N-[((2R)-1-{4-[(tert-butoxy)carbonylamino]butanoyl}pyrrolidin-2-yl)methyl](2-{[2-(3-fluorophenyl)ethyl]amino}-6-(1-methylpyrazol-4-yl)(3-pyridyl))carboxamide]: the pIC50 was 5.44.

For the molecule `Cn1cc(-c2nc(NCCc3cccc(F)c3)c(C(=O)NC[C@H]3CCCN3C(=O)CCCNC(=O)OC(C)(C)C)cc2Cl)cn1` [N-[((2R)-1-{4-[(tert-butoxy)carbonylamino]butanoyl}pyrrolidin-2-yl)methyl](5-chloro-2-{[2-(3-fluorophenyl)ethyl]amino}-6-(1-methylpyrazol-4-yl)(3-pyridyl))carboxamide], the pIC50 is 6.17.

In the case of `Cn1cc(-c2nc(NCCc3cccc(F)c3)c(C(=O)NC[C@H]3CCCN3C(=O)CCCNC(=O)OC(C)(C)C)cc2C#N)cn1` [N-[((2R)-1-{4-[(tert-butoxy)carbonylamino]butanoyl}pyrrolidin-2-yl)methyl](5-cyano-2-{[2-(3-fluorophenyl)ethyl]amino}-6-(1-methylpyrazol-4-yl)(3-pyridyl))carboxamide], the pIC50 was 5.79.

For `CC(C)(C)OC(=O)NCCCC(=O)N1CCC[C@@H]1CNC(=O)c1cc(C#N)c(-c2cn[nH]c2)nc1NCCc1cccc(F)c1` [N-[((2R)-1-{4-[(tert-butoxy)carbonylamino]butanoyl}pyrrolidin-2-yl)methyl](5-cyano-2-{[2-(3-fluorophenyl)ethyl]amino}-6-pyrazol-4-yl(3-pyridyl))carboxamide], the negative-log IC50 (pIC50) was 5.47.

In the case of `Cn1cc(-c2nc(NCCc3cccc(F)c3)c(C(=O)NC[C@H]3CCCN3C(=O)CCCNC(=O)OC(C)(C)C)cc2F)cn1` [N-[((2R)-1-{4-[(tert-butoxy)carbonylamino]butanoyl}pyrrolidin-2-yl)methyl](5-fluoro-2-{[2-(3-fluorophenyl)ethyl]amino}-6-(1-methylpyrazol-4-yl)(3-pyridyl))carboxamide], the pIC50 was 6.32.

In the case of `CC(C)(C)OC(=O)NCCCC(=O)N1CCC[C@@H]1CNC(=O)c1cc(F)c(-c2cn[nH]c2)nc1NCCc1cccc(F)c1` [N-[((2R)-1-{4-[(tert-butoxy)carbonylamino]butanoyl}pyrrolidin-2-yl)methyl](5-fluoro-2-{[2-(3-fluorophenyl)ethyl]amino}-6-pyrazol-4-yl(3-pyridyl))carboxamide], the pIC50 was 6.12.

Turning to `CC(C)(C)OC(=O)NCCCC(=O)N1CCC[C@@H]1CNC(=O)c1ccc(-c2ccccc2C#N)nc1NCCc1cccc(F)c1` [N-[((2R)-1-{4-[(tert-butoxy)carbonylamino]butanoyl}pyrrolidin-2-yl)methyl](6-(2-cyanophenyl)-2-{[2-(3-fluorophenyl)ethyl]amino}(3-pyridyl))carboxamide], the pIC50 was 6.36.

For `CC(C)(C)OC(=O)NCCCC(=O)N1CCC[C@@H]1CNC(=O)c1cc(F)c(-c2ccccc2C#N)nc1NCCc1cccc(F)c1` [N-[((2R)-1-{4-[(tert-butoxy)carbonylamino]butanoyl}pyrrolidin-2-yl)methyl](6-(2-cyanophenyl)-5-fluoro-2-{[2-(3-fluorophenyl)ethyl]amino}(3-pyridyl))carboxamide], the pIC50 is 5.98.

Regarding `CC(C)(C)OC(=O)NCCCCC(=O)N1CCC[C@@H]1CNC(=O)c1ccc(-c2ccccc2C#N)nc1NCCc1cccc(F)c1` [N-[((2R)-1-{5-[(tert-butoxy)carbonylamino]pentanoyl}pyrrolidin-2-yl)methyl](6-(2-cyanophenyl)-2-{[2-(3-fluorophenyl)ethyl]amino}(3-pyridyl))carboxamide], the pIC50 is 5.53.

`Cn1cc(-c2nc(NCCc3cccc(F)c3)c(C(=O)NC[C@H]3CCCN3C(=O)[C@H](CCCNC(=O)OC(C)(C)C)NC(=O)OC(C)(C)C)cc2F)cn1` [N-[((2R)-1-{(2S)-2,5-bis[(tert-butoxy)carbonylamino]pentanoyl}pyrrolidin-2-yl)methyl](5-fluoro-2-{[2-(3-fluorophenyl)ethyl]amino}-6-(1-methylpyrazol-4-yl)(3-pyridyl))carboxamide]: the pIC50 was 4.71.

Take `CC(C)(C)OC(=O)N[C@@H](CO)C(=O)N1CCC[C@@H]1CNC(=O)c1cc(F)c(-c2cn[nH]c2)nc1NCCc1cccc(F)c1` [N-[((2R)-1-{(2S)-2-[(tert-butoxy)carbonylamino]-3-hydroxypropanoyl}pyrrolidin-2-yl)methyl](5-fluoro-2-{[2-(3-fluorophenyl)ethyl]amino}-6-pyrazol-4-yl(3-pyridyl))carboxamide]: the pIC50 is 6.00.

Take `N#Cc1ccccc1-c1ccc(C(=O)NC[C@H]2CCCN2S(=O)(=O)CCCN2C(=O)c3ccccc3C2=O)c(NCCc2cccc(F)c2)n1` [N-[((2R)-1-{[3-(1,3-dioxobenzo[c]azolin-2-yl)propyl]sulfonyl}pyrrolidin-2-yl)methyl](6-(2-cyanophenyl)-2-{[2-(3-fluorophenyl)ethyl]amino}(3-pyridyl))carboxamide]: the pIC50 was 4.95.

With `CC(C)(C)OC(=O)NCCCN1CC(=O)N[C@H](CNC(=O)c2ccc(-c3ccccc3C#N)nc2NCCc2cccc(F)c2)C1` [N-[((2R)-4-{3-[(tert-butoxy)carbonylamino]propyl}-6-oxopiperazin-2-yl)methyl](6-(2-cyanophenyl)-2-{[2-(3-fluorophenyl)ethyl]amino}(3-pyridyl))carboxamide], the pIC50 was 5.02.

`Cn1cc(-c2ccc(C(=O)NC[C@H]3CCC(=O)N3)c(NCCc3cccc(F)c3)n2)cn1` [N-[((2R)-5-oxopyrrolidin-2-yl)methyl](2-{[2-(3-fluorophenyl)ethyl]amino}-6-(1-methylpyrazol-4-yl)(3-pyridyl))carboxamide]: the pIC50 is 6.81.

As for `O=C1CC[C@H](CNC(=O)c2ccc(-c3cc[nH]n3)nc2NCCc2cccc(F)c2)N1` [N-[((2R)-5-oxopyrrolidin-2-yl)methyl](2-{[2-(3-fluorophenyl)ethyl]amino}-6-pyrazol-3-yl(3-pyridyl))carboxamide], the pIC50 is 6.45.

For the molecule `O=C1CC[C@H](CNC(=O)c2ccc(-c3cn[nH]c3)nc2NCCc2cccc(F)c2)N1` [N-[((2R)-5-oxopyrrolidin-2-yl)methyl](2-{[2-(3-fluorophenyl)ethyl]amino}-6-pyrazol-4-yl(3-pyridyl))carboxamide], the pIC50 is 6.92.

The record behind these values is US7932270B2 (Cytokinetics, Inc., priority 2006, dated 2011).
